Experimental data from patent US20240270762A1, “PENICILLIN-BINDING PROTEIN INHIBITORS” (priority 2021, published 2024).
Like-named read-outs stand apart in the source and are kept apart here.

Columns and labels:
[1] = test system: N. gonorrhoeae WHO L; assay: Liquid broth MIC in Fastidious broth; details: Neisseria gonorrhoeae
[2] = target: T1, PBP3 from Acinetobacter baumannii (ATCC 19606) (Acinetobacter baumannii, UniProt A0ABX6CK25); assay: Bocillin-FL fluorescence polarization competition binding, A. baumannii PBP3; details: fluorescence polarization competition binding assay using Bocillin-FL; read-out: A. baumannii PBP3 Potency
T1 sequence (A0ABX6CK25 64-610): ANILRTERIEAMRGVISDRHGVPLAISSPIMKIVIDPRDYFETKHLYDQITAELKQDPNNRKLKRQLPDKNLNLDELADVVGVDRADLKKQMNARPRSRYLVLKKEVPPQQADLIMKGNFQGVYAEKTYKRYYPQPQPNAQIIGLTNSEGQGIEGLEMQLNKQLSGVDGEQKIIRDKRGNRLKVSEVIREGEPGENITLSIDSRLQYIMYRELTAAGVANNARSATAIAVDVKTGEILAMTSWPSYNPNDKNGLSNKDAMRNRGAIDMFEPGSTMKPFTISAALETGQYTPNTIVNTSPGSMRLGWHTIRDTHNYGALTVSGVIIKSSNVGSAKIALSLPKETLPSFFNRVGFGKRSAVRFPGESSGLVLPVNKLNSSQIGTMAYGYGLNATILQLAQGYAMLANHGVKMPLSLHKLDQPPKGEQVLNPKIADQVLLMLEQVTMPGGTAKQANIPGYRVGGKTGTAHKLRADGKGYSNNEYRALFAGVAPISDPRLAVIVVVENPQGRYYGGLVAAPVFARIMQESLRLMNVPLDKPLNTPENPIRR
How it was run: (§1)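 Purified PBP was preincubated with inhibitor (E. coli PBP3 1.5 μM, 30 min; P. aeruginosa PBP3 0.75 μM, A. baumannii PBP3 0.2 μM and PBP1a 1 μM, 15 min), then Bocillin-FL (0.1 μM; 0.05 μM for PBP1a) added and FP read up to 60 min. EC50 = 50% loss of bound probe.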

[3] = target: T2, PBP1a from Acinetobacter baumannii (ATCC 19606) (Acinetobacter baumannii, UniProt A0ABX6CK30); assay: Bocillin-FL fluorescence polarization competition binding, A. baumannii PBP1a; details: fluorescence polarization competition binding assay using Bocillin-FL; read-out: A. baumannii PBP1a Potency
T2 sequence (A0ABX6CK30 1-851): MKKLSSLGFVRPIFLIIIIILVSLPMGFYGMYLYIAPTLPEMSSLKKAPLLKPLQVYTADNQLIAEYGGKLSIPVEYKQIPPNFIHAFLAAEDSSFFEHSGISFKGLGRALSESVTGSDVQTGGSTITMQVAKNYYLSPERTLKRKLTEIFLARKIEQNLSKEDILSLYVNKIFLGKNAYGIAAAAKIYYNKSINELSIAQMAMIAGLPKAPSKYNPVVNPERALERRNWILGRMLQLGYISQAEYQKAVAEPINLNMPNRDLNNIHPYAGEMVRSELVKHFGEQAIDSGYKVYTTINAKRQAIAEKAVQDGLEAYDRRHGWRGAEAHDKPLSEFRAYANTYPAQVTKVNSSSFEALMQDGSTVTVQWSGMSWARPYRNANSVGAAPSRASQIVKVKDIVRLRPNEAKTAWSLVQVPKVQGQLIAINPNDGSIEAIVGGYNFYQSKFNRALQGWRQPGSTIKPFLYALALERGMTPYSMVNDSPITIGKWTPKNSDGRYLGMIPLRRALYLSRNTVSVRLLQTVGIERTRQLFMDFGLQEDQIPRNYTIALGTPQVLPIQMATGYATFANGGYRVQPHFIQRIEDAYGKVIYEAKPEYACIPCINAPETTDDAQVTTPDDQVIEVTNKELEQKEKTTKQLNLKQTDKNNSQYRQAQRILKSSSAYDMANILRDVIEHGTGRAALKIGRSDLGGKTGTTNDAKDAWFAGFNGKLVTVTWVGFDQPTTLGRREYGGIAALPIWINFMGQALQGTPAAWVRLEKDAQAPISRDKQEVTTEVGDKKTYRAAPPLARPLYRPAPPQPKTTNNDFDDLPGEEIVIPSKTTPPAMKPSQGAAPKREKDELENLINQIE
How it was run: as §1

[4] = read-out: Minimum Inhibitory Concentration, WHO L
[5] = read-out: Minimum Inhibitory Concentration (MIC), N. gonorrhoeae WHO L

Structure (SMILES) | MIC [1, 4] [µg/mL] | IC50 [2] [µM] | IC50 [3] [µM] | MIC [1, 5] [µg/mL]
O=C(NCCN1CCN(C(=O)NC(C(=O)N[C@H]2Cc3ccc(F)c(C(=O)O)c3OB2O)c2cc(F)c(O)c(O)c2Cl)C1=O)Nc1ccncc1 (stereo partly drawn) [Example 250, (3R)-3-(2-(2-chloro-5-fluoro-3,4-dihydroxyphenyl)-2-(2-oxo-3-(2-(3-(pyridin-4-yl)ureido)ethyl)imidazolidine-1-carboxamido)acetamido)-7-fluoro-2-hydroxy-3,4-dihydro-2H-benzo[e][1,2]oxaborinine-8-carboxylic acid] | > 64 | < 10 | > 250 | 
O=C(NCCN1CCN(C(=O)N[C@@H](C(=O)N[C@H]2Cc3ccc(F)c(C(=O)O)c3OB2O)c2cc(F)c(O)c(O)c2Cl)C(=O)C1=O)Nc1cccnc1 [Example 222, (R)-3-((R)-2-(2-chloro-5-fluoro-3,4-dihydroxyphenyl)-2-(2,3-dioxo-4-(2-(3-(pyridin-3-yl)ureido)ethyl)piperazine-1-carboxamido)acetamido)-7-fluoro-2-hydroxy-3,4-dihydro-2H-benzo[e][1,2]oxaborinine-8-carboxylic acid] |  | < 10 | > 250 | > 64
CN(CCN1CCN(C(=O)N[C@@H](C(=O)N[C@H]2Cc3ccc(F)c(C(=O)O)c3OB2O)c2cc(F)c(O)c(O)c2Cl)C(=O)C1=O)Cc1nccs1 [Example 200, (R)-3-((R)-2-(2-chloro-5-fluoro-3,4-dihydroxyphenyl)-2-(4-(2-(methyl(thiazol-2-ylmethyl)amino)ethyl)-2,3-dioxopiperazine-1-carboxamido)acetamido)-7-fluoro-2-hydroxy-3,4-dihydro-2H-benzo[e][1,2]oxaborinine-8-carboxylic acid] |  | < 10 | > 250 | > 64
O=C(NCCN1CCN(C(=O)NC(C(=O)N[C@H]2Cc3ccc(F)c(C(=O)O)c3OB2O)c2cc(F)c(O)c(O)c2Cl)C1=O)c1ccc(O)cc1 (stereo partly drawn) [Example 243, (3R)-3-(2-(2-chloro-5-fluoro-3,4-dihydroxyphenyl)-2-(3-(2-(4-hydroxybenzamido)ethyl)-2-oxoimidazolidine-1-carboxamido)acetamido)-7-fluoro-2-hydroxy-3,4-dihydro-2H-benzo[e][1,2]oxaborinine-8-carboxylic acid] |  | < 10 | > 250 | > 64
CN(CCN1CCN(C(=O)N[C@@H](C(=O)N[C@H]2Cc3ccc(F)c(C(=O)O)c3OB2O)c2cc(F)c(O)c(O)c2Cl)C(=O)C1=O)Cc1cccc(C(N)=O)c1 [Example 225, (R)-3-((R)-2-(4-(2-((3-carbamoylbenzyl)(methyl)amino)ethyl)-2,3-dioxopiperazine-1-carboxamido)-2-(2-chloro-5-fluoro-3,4-dihydroxyphenyl)acetamido)-7-fluoro-2-hydroxy-3,4-dihydro-2H-benzo[e][1,2]oxaborinine-8-carboxylic acid] |  | < 10 | > 250 | > 64
O=C(NCCCN1CCN(C(=O)NC(C(=O)N[C@H]2Cc3ccc(F)c(C(=O)O)c3OB2O)c2cc(F)c(O)c(O)c2Cl)C1=O)c1nccs1 (stereo partly drawn) [Example 257, (3R)-3-(2-(2-chloro-5-fluoro-3,4-dihydroxyphenyl)-2-(2-oxo-3-(3-(thiazole-2-carboxamido)propyl)imidazolidine-1-carboxamido)acetamido)-7-fluoro-2-hydroxy-3,4-dihydro-2H-benzo[e][1,2]oxaborinine-8-carboxylic acid] | > 64 | < 10 | > 250 | 
O=C(O)c1c(F)ccc2c1OB(O)[C@@H](NC(=O)C(NC(=O)N1CCN(CCCNC(=O)[C@@H]3CCCN3)C(=O)C1=O)c1cc(F)c(O)c(O)c1Cl)C2 (stereo partly drawn) [Example 212, (3R)-3-(2-(2-chloro-5-fluoro-3,4-dihydroxyphenyl)-2-(2,3-dioxo-4-(3-((S)-pyrrolidine-2-carboxamido)propyl)piperazine-1-carboxamido)acetamido)-7-fluoro-2-hydroxy-3,4-dihydro-2H-benzo[e][1,2]oxaborinine-8-carboxylic acid] |  | < 10 | > 250 | > 64
